Data from patent US7608683B2, “Stress proteins and peptides and methods of use thereof” (The Regents of the University of California, priority 2000, dated 2009).
Where a SMILES comes first, the peptide text is derived from it. The star is where a group is joined. Biotin = O=C1N[C@H]2[C@H](CS[C@H]2CCCCC(=O)*)N1

Tests used:
patients with RA = conditions: 15 RA patients, 0.25, 2.5 or 25 mg daily orally for 6 months
From the text: This study was a Phase I Immune Tolerization study conducted to determine whether in RA interplay between HLA and dnaJ-derived peptides there is maintained and/or stimulation of T cells which participate in autoimmune inflammation. The trial (number “n” of patients who completed=13) was designed in order to adhere to the American College of Rheumatology (ACR) 20 criteria for evaluation of efficacy.
Data from Phase I: The data shown in FIGS. 11A-E and 12A-E stem from a Phase I trial in which a total of 13 human RA patients were treated with three different doses of dnaJP1 qd po for 6 months. In vitro T cell responses to dnaJP1 were monitored at monthly intervals by measuring T cell proliferation and cytokine production in patients treated with dnaJP1 or control molecules.
We designed a pilot clinical trial to obtain information regarding both safety and immunological efficacy of the treatment. Enrollment criteria for this study included active RA as defined by the American College of Rheumatology, a disease duration <5 years and in vitro responsiveness to dnaJP1, defined as T cell proliferation and/or production of proinflammatory cytokines. DnaJP1 was given orally for 6 months. […]

[1] = tested on: PBMC from patients with RA; conditions: 31 RA patient samples
Description: In FIG. 13A, Stimulation Index (SI) (y-axis). […] The dots represent individual patients. Lines indicate median values.
In FIG. 13B samples of 20 patients with recent onset RA and samples of 12 patients with OA were tested for T cell proliferation to the proteins and to the individual peptides.

[2] = tested on: PBMCs from patients with RA; test: T cell proliferation assay, PBMC of RA patients in the dnaJP1 trial; type: cell-based, human; conditions: negative control peptide
From the text: FIG. 20A-L Treatment-induced modulation of T cell responses to dnaJP1. PBMC immune responses to dnaJP and controls from patients enrolled in the trial (n=15). T cell-proliferative response after in vitro culture with dnaJP1(a) or an irrelevant altered peptide ligand (b) in a standard proliferation assay. Phytohemagglutinin (a, ▴) was used as a positive control for T cell proliferation. […] Intracellular production of IL-2, IFN-γ, and TNF-α in response to dnaJP1 (c, e, and g) or PADRE peptide (d-f and h, respectively) at day 0 assessed at monthly intervals during treatment. Cytokine production is expressed as the percentage of CD3/cytokine double-positive cells measured by FACS in antigen-stimulated cultures, nonstimulated cultures (y axis). Error bars represent SD of the mean. Intracellular production of IL-4 (i) and IL-10 (k) after in vitro culture with dnaJP1 or with PADRE (j and l) at days 0, 56, and 168 of the treatment period.
T Cell Proliferation Assays. Peripheral blood mononuclear cells (PBMCs) were cultured in triplicate in […] u-shaped bottom wells (Costar, Cambridge, Mass.) at 5×10^5 cells per well for 120 h with or without antigen. […] Thymidine uptake was measured by using a liquid scintillation counter. Results are expressed as a mean cpm of triplicate cultures. The magnitude of the response is expressed as stimulation index: the mean cpm of stimulated/nonstimulated cultures. […]

[3] = tested on: PBMC of subjects with JIA; test: immunological recognition (T cell proliferation and/or cytokine production) in subjects with JIA; type: cell-based, human
From the text: The right Y-axis depicts the stimulation index SI, and the left Y-axis depicts the production of cytokines INF-γ and IL-10 in pg/ml.
Immunological recognition of an antigen can be defined as antigen-specific T cell proliferation and/or antigen-specific cytokine production after culture with the specific antigens. In addition, in a very high percentage of subjects (ranging from 60 to 100%), T cell recognition of these pan DR binding hsp60 peptides could be detected (FIG. 9). This percentage can be considered extremely high if one considers both the failures of previous studies to determine T cell epitopes in JIA and the heterogenic HLA background in subjects with JIA.
If one compares the identified peptides with peptides that previously have been identified through the rat model of arthritis, the superiority of the method used here becomes evident. In previous studies in the model of adjuvant arthritis, it has been shown that mycobacterial hsp60 peptide containing amino acids 256-270 could induce protection in Adjuvant Arthritis. Following this finding a lot of effort has been put in attempting to identify the presence of 256-270 specific T cells in subjects with JIA. Based on the data provided by the computer algorithm, a new peptide was designed that was compared to the 256-270 aa peptide. […]

[4] = tested on: PBMC from patients with JDM; test: T cell proliferation (thymidine incorporation), PBMC of Juvenile Dermatomyositis patients; type: cell-based, human; conditions: 10 micrograms/ml, 96 hours; active disease vs remission
From the text: FIG. 17 is a graph showing T cell proliferative responses of PBMC from patients with Juvenile Dermatomyositis (JDM) towards the hsp60 bacterial and human peptides of FIG. 5. Patients in remission (n=7); patients with active JDM (n=6).
This example identifies in another pediatric disease a peptide from the pool whose recognition triggers regulatory type T cells. Thirteen patients with a definite diagnosis of JDM according to standard disease criteria, were included in this study. […] All antigens were cultured at 10 micrograms/ml. After 96 hours thymidine incorporation was measured. The results are expressed in FIG. 17 as stimulation index (SI). SI is defined as counts per minute (cpm) thymidine incorporation in cells cultured with an antigen divided by cpm of cells cultured in culture medium without antigen. […] Bars represents the mean SI for PBMC from JDM patients with either active disease or incomplete clinical remission.

[5] = tested on: PBMC of subjects with JIA; type: cell-based, human; conditions: 72 hours culture, ELISA

| Molecule | recognition (T cell proliferation) by RA patients [1] | also measured |
| --- | --- | --- |
| C[C@H](NC(=O)[C@H](C)NC(=O)[C@H](Cc1c[nH]cn1)NC(=O)CNC(=O)[C@H](Cc1ccc(O)cc1)NC(=O)[C@H](CCC(N)=O)NC(=O)[C@H](CC(=O)O)NC(=O)[C@H](Cc1ccc(O)cc1)NC(=O)[C@H](C)NC(=O)[C@H](C)NC(=O)[C@H](CCCNC(=N)N)NC(=O)[C@H](CCCCN)NC(=O)[C@H](CCC(N)=O)NC(=O)CCCC[C@@H]1SC[C@@H]2NC(=O)N[C@@H]21)C(=O)N[C@@H](Cc1ccccc1)C(=O)N[C@@H](CCC(=O)O)C(N)=O [dnaJP1] (Biotin-QKRAAYDQYGHAAFE-NH2) | – | tolerability / side effects (patients with RA): well tolerated because no significant side effects were reported |
| AYVLLSEKKISSIQS [P4] | recognized | – |
| DERAAYDQYGHAAFE (Biotin-DERAAYDQYGHAAFE-NH2; SMILES C[C@H](NC(=O)[C@H](C)NC(=O)[C@H](Cc1c[nH]cn1)NC(=O)CNC(=O)[C@H](Cc1ccc(O)cc1)NC(=O)[C@H](CCC(N)=O)NC(=O)[C@H](CC(=O)O)NC(=O)[C@H](Cc1ccc(O)cc1)NC(=O)[C@H](C)NC(=O)[C@H](C)NC(=O)[C@H](CCCNC(=N)N)NC(=O)[C@H](CCC(=O)O)NC(=O)[C@H](CC(=O)O)NC(=O)CCCC[C@@H]1SC[C@@H]2NC(=O)N[C@@H]21)C(=O)N[C@@H](Cc1ccccc1)C(=O)N[C@@H](CCC(=O)O)C(N)=O) [dnaJPv, altered peptide ligand, identical to dnaJP1 except for the two N-terminal amino acids; negative control] | – | proliferative T cell response in patients with RA [2]: does not induce a proliferative T cell response; proliferative T cell response in patients with RA ([2]; listed as dnaJpV): not stimulatory in patients |
| EAVLEDPYILLVSSK [P5] | recognized | – |
| GEALSTLVLNRLKVG [P2] | recognized | – |
| GEALSTLVVNKIRGT [P1] | recognized | T cell responses as defined by T cell proliferation and cytokine production [3]: did induce T cell responses |
| IAGLFLTTEAVVADK [P7] | recognized | – |
| KCEFQDAYVLLSEKK [P6] | recognized | – |
| PYILLVSSKVSTVKD [P3] | recognized | – |
| VASLLTTAEVVVTEI (listed as Homo sapiens) [P8, residues 535-549 of human hsp60] | recognized | recognition (T cell proliferation, SI) in JDM patients [4]: recognized by the patients during disease remission |
| mycobacterial hsp60 256-270: negative control peptide, mycobacterial hsp60 amino acids 256-270, protective in rat adjuvant arthritis | – | antigen-specific cytokine production (IL-10, IFN-γ, TNF-α) [5]: did not induce any cytokine production |
